For experiment [1], the target named is Beta-2 adrenergic receptor (Bos taurus) (UniProt Q28044). The conditions noted are these: Muscle tissue.
Description: Change in Gibb's free energy at Low affinity beta-2-adrenoceptor in the membranes of bovine skeletal muscle preparation
In experiment [2] the target is Beta-2 adrenergic receptor (Homo sapiens) (UniProt P07550).
Description: Change in Gibb's free energy at Low affinity beta-2-adrenoceptor in the Chang living cells
Experiment [3] has the same target. The source holds these as a separate data set.
Description: Change in Gibb's free energy at High affinity beta2- adrenoceptor in Chang living cells.

Among the data in ChEMBL document CHEMBL1124120, “Mapping of the beta 2-adrenoceptor on Chang liver cells. Differences between high- and low-affinity receptor states” (J Med Chem, 1988) are -Delta G values, retold here.

Beta-2 adrenergic receptor (Homo sapiens), sequence (P07550 whole entry, looked up): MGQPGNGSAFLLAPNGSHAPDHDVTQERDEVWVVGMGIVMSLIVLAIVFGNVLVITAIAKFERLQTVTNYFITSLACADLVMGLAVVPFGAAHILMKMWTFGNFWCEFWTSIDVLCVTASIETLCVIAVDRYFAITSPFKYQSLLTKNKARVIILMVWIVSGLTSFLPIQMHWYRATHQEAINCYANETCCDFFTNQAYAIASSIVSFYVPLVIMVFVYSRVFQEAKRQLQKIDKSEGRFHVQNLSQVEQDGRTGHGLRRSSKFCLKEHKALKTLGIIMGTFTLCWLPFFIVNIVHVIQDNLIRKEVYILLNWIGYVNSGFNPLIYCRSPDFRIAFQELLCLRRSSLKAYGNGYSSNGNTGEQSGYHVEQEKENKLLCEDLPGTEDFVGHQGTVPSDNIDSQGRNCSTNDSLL
Beta-2 adrenergic receptor (Bos taurus), sequence (Q28044 whole entry, looked up): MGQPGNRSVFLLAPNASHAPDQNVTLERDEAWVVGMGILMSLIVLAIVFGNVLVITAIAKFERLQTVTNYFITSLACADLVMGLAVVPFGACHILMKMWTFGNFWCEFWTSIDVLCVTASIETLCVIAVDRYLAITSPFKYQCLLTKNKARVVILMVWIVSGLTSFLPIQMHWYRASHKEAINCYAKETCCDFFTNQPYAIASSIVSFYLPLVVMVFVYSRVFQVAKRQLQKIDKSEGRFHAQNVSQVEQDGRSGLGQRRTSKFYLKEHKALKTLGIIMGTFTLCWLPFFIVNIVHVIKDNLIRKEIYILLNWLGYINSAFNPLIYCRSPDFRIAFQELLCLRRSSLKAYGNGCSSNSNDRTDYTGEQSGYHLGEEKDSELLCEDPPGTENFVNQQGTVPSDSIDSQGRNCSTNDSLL

In experiment [1], `C=CCc1ccccc1OCC(O)CNC(C)C` (stereo not given) came in with a -Delta G of 13.3.

Turning to `C=CCc1ccccc1OCC(O)CNCC(C)(C)N` (stereo not given), the -Delta G in experiment [2] was determined as 9.54.

On to `CC(C)(C)NCC(O)c1ccccc1Cl` (stereo not given), for which, in experiment [2], the -Delta G amounted to 9.17.

The molecule `CC(C)NCC(O)COc1cccc2[nH]ccc12` (stereo not given) gave a -Delta G in experiment [2] of 12.8.

Consider `CCCc1ccccc1OCC(O)CNC(C)C` (stereo not given), for which the -Delta G came to 12.9 in experiment [2] and 13.1 in experiment [1].

With `CNC[C@H](O)c1ccc(O)c(O)c1`, the -Delta G in experiment [2] was determined as 6.92; in experiment [3], 10.1.

As to `NC[C@H](O)c1ccc(O)c(O)c1`, the -Delta G in experiment [2] was found to be 6; in experiment [3], 8.64.

For `CC(C)(C)NCC(O)COc1cccc2[nH]c(C#N)c(I)c12` (racemic), in experiment [2], the -Delta G came to 15.2.

Molecule `CC(C)(C)NCC(O)c1cc(Cl)c(N)c(Cl)c1` (racemic) showed a -Delta G in experiment [1] of 11.

Consider `CC(C)(C)NCC(O)c1cc(Cl)c(O)c(Cl)c1` (racemic), for which the -Delta G in experiment [2] was determined as 11.1; in experiment [1], 10.5.

Molecule `CC(C)(C)NCC(O)c1cc(O)cc(O)c1` (racemic) came in with a -Delta G in experiment [1] of 8.13.

For the molecule `CC(C)(C)NCC(O)c1ccc(O)c(C(N)=O)c1` (racemic), the values for the -Delta G in experiment [2] and in experiment [3] were 9.54 and 11.2, respectively.

For `CC(C)(C)NCC(O)c1ccc(O)c(CO)c1` (racemic), in experiment [1], the -Delta G is 9.34.

Take `CC(C)(C)NCC(O)c1ccc(O)c(N)c1` (racemic): the values for the -Delta G in experiment [2], in experiment [3] and in experiment [1] were 7.73, 9.69 and 8.5, respectively.

In the case of `CC(C)(C)NCC(O)c1ccc(O)c(O)c1` (racemic), the -Delta G in experiment [2] was 8.5; in experiment [3], 11.7; in experiment [1], 9.29.

In turn, `CC(C)(N)CNCC(O)COc1cccc2[nH]ccc12` (racemic) gave a -Delta G in experiment [2] of 10.1.

`CC(C)NCC(O)c1cc(Cl)c(N)c(Cl)c1` (racemic): the -Delta G in experiment [2] was determined as 9.08; in experiment [3] it was 11.1; in experiment [1], 10.7.

With `CC(C)NCC(O)c1cc(O)cc(O)c1` (racemic), the -Delta G in experiment [2] was 7.19; in experiment [3], 10.7.

`CC(C)NCC(O)c1ccc(NS(C)(=O)=O)cc1` (racemic) registered a -Delta G in experiment [1] of 9.32.

With `CC(C)NCC(O)c1ccc(O)c(CO)c1` (racemic), the -Delta G in experiment [2] was determined as 7.41; in experiment [3] it was 9.6.

In the case of `CC(C)NCC(O)c1ccc(O)c(N)c1` (racemic), the -Delta G in experiment [2] was 7.17; in experiment [3], 9.13; in experiment [1], 7.93.

Take `CC(C)NCC(O)c1ccc(O)cc1` (racemic): the -Delta G in experiment [3] amounted to 9.76.

The molecule `CC(C)NCC(O)c1ccc([N+](=O)[O-])cc1` (racemic) registered a -Delta G in experiment [2] of 8.23.

`CC(C)NCC(O)c1ccc2ccccc2c1` (racemic) yielded a -Delta G in experiment [1] of 10.1.

On to `CC(C)NCC(O)c1cccc(O)c1` (racemic), for which the figures for the -Delta G in experiment [2] and in experiment [1] were 7.05 and 9, respectively.

On to `CC(C)NC[C@H](O)COc1ccc(O)cc1` (racemic), for which the -Delta G in experiment [2] was determined as 9.76; in experiment [1], 8.9.

On to `CC(Cc1ccc(O)cc1)NCC(O)c1cc(O)cc(O)c1` (racemic), for which the -Delta G in experiment [2] was 8.28.

Turning to `CNc1cc(C(O)CNC(C)(C)C)ccc1O` (racemic), the -Delta G in experiment [2] amounted to 9.39; in experiment [3], 10.5.

`Cc1cc(C)cc(OCC(O)CNC(C)C)c1` (racemic): the -Delta G in experiment [2] stood at 10.4; in experiment [1] it was 11.8.

In the case of `Cc1cccc(OCC(O)CNC(C)C)c1` (racemic), the -Delta G was found to be 11.4 in experiment [2] and 10.9 in experiment [1].
